We go through one compound from ChEMBL document CHEMBL5104169, “Design and synthesis of mogrol derivatives modified on a ring with anti-inflammatory and anti-proliferative activities” (Bioorg Med Chem Lett, 2022).

Active and inactive are the calls of the source. No cut-off for these calls is given here.

Series [1] has as its system NCI-H1975. The series can be described thus: Induction of cell cycle arrest in human NCI-H1975 cells assessed as accumulation G1 phase at 8 uM incubated for 72 hrs (reference value: 66.36%). It counts as functional.
The subject of series [2] is NCI-H1299. Put plainly: Induction of cell cycle arrest in human NCI-H1299 cells assessed as accumulation G1 phase at 2 uM incubated for 72 hrs (reference value: 40.25%). It is filed as functional.
The next series deals with A549. The series can be described thus: Antiproliferative activity against human A549 cells. It is filed as functional, cell-based.
The subject of series [3] is NCI-H1975. The series can be described thus: Induction of cell cycle arrest in human NCI-H1975 cells assessed as accumulation S phase at 8 uM incubated for 72 hrs (reference value: 22.67%). It counts as functional.
The test system of series [4] is NCI-H1975. Put plainly: Induction of cell cycle arrest in human NCI-H1975 cells assessed as accumulation G1 phase at 2 uM incubated for 72 hrs (reference value: 66.36%). It is filed as functional.
Another series relates to RAW264.7. Put plainly: Cytotoxicity against mouse RAW264.7 cells at 10 uM measured after 24 hrs by CCK-8 assay relative to control. The settings on record: raw264.7, 24 h. It is filed as toxicity, cell-based. For orientation: Tetrazolium assays rely on reduction of a dye to a coloured formazan, in cell work by metabolically active cells.
The subject of series [5] is NCI-H1299. The series can be described thus: Induction of cell cycle arrest in human NCI-H1299 cells assessed as accumulation G1 phase at 8 uM incubated for 72 hrs (reference value: 40.25%). It counts as functional.
The subject of series [6] is NCI-H1975. The series can be described thus: Antiproliferative activity against human NCI-H1975 cells assessed as decrease in p-p65 expression at 2 to 8 uM measured after 72 hrs by western blot analysis. It counts as functional, cell-based. The settings on record: dose 2-8 µM.
For series [7], the system named is NCI-H1299. Put plainly: Induction of cell cycle arrest in human NCI-H1299 cells assessed as accumulation S phase at 8 uM incubated for 72 hrs (reference value: 43.67%). It is filed as functional.
In series [8] the test system is NCI-H1299. Put plainly: Induction of cell cycle arrest in human NCI-H1299 cells assessed as accumulation S phase at 2 uM incubated for 72 hrs (reference value: 43.67%). It counts as functional.
The subject of series [9] is NCI-H1299. The series can be described thus: Induction of cell cycle arrest in human NCI-H1299 cells assessed as accumulation G2 phase at 8 uM incubated for 72 hrs (reference value: 16.08%). It is filed as functional.
Series [10] deals with NCI-H1975. Put plainly: Antiproliferative activity against human NCI-H1975 cells. It is filed as functional, cell-based.
The subject of another series is NCI-H460. Put plainly: Antiproliferative activity against human NCI-H460 cells. It is filed as functional, cell-based.
Series [11] deals with NCI-H1299. Put plainly: Induction of cell cycle arrest in human NCI-H1299 cells assessed as accumulation G2 phase at 2 uM incubated for 72 hrs (reference value: 16.08%). It is filed as functional.
Series [12] concerns NCI-H1975. Put plainly: Induction of cell cycle arrest in human NCI-H1975 cells assessed as accumulation G2 phase at 8 uM incubated for 72 hrs (reference value: 11.97%). It is filed as functional.
The test system of series [13] is NCI-H1975. Put plainly: Induction of cell cycle arrest in human NCI-H1975 cells assessed as accumulation G2 phase at 2 uM incubated for 72 hrs (reference value: 11.97%). It is filed as functional.
Series [14] has as its system NCI-H1975. The series can be described thus: Induction of cell cycle arrest in human NCI-H1975 cells assessed as accumulation S phase at 2 uM incubated for 72 hrs (reference value: 22.67%). It is filed as functional.
The test system of series [15] is NCI-H1299. The series can be described thus: Antiproliferative activity against human NCI-H1299 cells. It counts as functional, cell-based.

Regarding `C[C@H](CC[C@@H](O)C(C)(C)O)[C@H]1CC[C@@]2(C)[C@@H]3CC=C4[C@@H](C/C(=C\c5ccncc5)C(=O)C4(C)C)[C@]3(C)C(=O)C[C@]12C`, the Activity is recorded as 83.96% with NCI-H1975 [1]; 42.49% with NCI-H1299 [2]; 9.67% in the series on NCI-H1975 [3]; 66.51% in the series with NCI-H1975 [4]; “Toxic” in the series on RAW264.7; 50.5% with NCI-H1299 [5]. Also, the Activity is listed as 33.12% in the series with NCI-H1299 [7]; 40.12% in the series on NCI-H1299 [8]; 16.38% with NCI-H1299 [9]; 17.4% in the series with NCI-H1299 [11]; 6.38% with NCI-H1975 [12]; 12.84% in the series with NCI-H1975 [13]. Also, the Activity in the series on NCI-H1975 [14] came to 20.66%. In addition, the IC50 (in general, the concentration that gives 50% inhibition) stood at 11.1 µM with A549, 7.24 µM in the series with NCI-H1975 [10], 15.7 µM in the series with NCI-H460 and 8.39 µM with NCI-H1299 [15]. The outcome in the series with NCI-H1975 [6] was Active.
